Where a name gives a salt, the structure may show the parent alone. Read-outs that look alike come from different tables or passages of the source. Blank lines part the entries; values can stand above or below the compound they belong to.
Columns and labels:
[1] = target: D2R; settings: Figure 1; ref 25 (SB737050), ref 19 (I), ref 26 (PZ-1643), ref 27 (CPPQ); cited from earlier work
[2] = target: T1, human 5-HT6R (Homo sapiens, UniProt P50406); assay: [3H]-LSD radioligand binding assay at 5-HT6R in HEK293 cell membranes; settings: HEK293 cells with stable expression of human 5-HT6R, mean of at least three experiments (SEM ≤ 18%)
T1 construct: expressed in transfected cells
T1 sequence (P50406 whole entry): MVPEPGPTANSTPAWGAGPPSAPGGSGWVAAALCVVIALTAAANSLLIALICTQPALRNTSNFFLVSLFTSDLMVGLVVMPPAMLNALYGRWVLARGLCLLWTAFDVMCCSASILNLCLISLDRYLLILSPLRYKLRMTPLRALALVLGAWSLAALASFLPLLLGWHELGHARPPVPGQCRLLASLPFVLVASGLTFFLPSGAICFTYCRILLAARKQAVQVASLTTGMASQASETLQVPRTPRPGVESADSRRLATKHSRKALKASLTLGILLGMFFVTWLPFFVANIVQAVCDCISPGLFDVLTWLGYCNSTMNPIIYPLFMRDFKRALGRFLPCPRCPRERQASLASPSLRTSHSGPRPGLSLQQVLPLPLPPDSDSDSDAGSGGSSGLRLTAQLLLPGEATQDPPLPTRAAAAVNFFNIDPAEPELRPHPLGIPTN
Method: (§1) The biological evaluation was initiated by assessing the affinity of the compounds for 5-HT6R in the [^3H]-LSD radioligand binding assay. Experiments were performed in a stable HEK293 cell line expressing the human 5-HT6R [10]. […] Experiments were performed in Chinese hamster ovary (CHO) cells with the stable expression of human D3R (Eurofins, Celle-L’Evescault, France).
HEK293 cells with stable expression of human 5-HT6 receptors (prepared with the use of Lipofectamine 2000) were maintained at 37 °C in a humidified atmosphere with 5% CO2 and grown in Dulbecco’s modified Eagle medium containing 10% dialyzed fetal bovine serum and 500 μg/mL G418 sulfate. For membrane preparation, cells were sub-cultured in 150 cm^2 flasks, grown to 90% confluence, washed twice with phosphate buffered saline (PBS), prewarmed to 37 °C, and pelleted by centrifugation (200× g) in PBS containing 0.1 mM EDTA and 1 mM dithiothreitol. Prior to membrane preparation, pellets were stored at −80 °C.
The cell pellets were thawed and homogenized in 10 volumes of assay buffer using an Ultra Turrax tissue homogenizer(IKA, Warsaw, Poland), centrifuged twice at 35,000× g for 15 min at 4 °C, and incubated for 15 min at 37 °C between centrifugation rounds. The composition of the assay buffers was 50 mM Tris HCl, 0.5 mM EDTA, and 4 mM MgCl2. The assays were incubated in a total volume of 200 μL in 96-well microtiter plates for 1 h at 37 °C. The process of equilibration was terminated by rapid filtration through Unifilter plates with a 96-well cell harvester, and radioactivity retained on the filters was quantified on a Microbeta plate reader (PerkinElmer, Waltham, MA, USA). For displacement studies, the assay samples contained as radioligands (PerkinElmer, USA) 2 nM [^3H]-LSD (83.6 Ci/mmol). Nonspecific binding was defined with 10 μM methiothepine. Each compound was tested in triplicate at 7 concentrations (10^−10 to 10^−4 M). The inhibition constants (Ki) were calculated from the Cheng−Prusoff equation [30]. […]

[3] = target: T2, human D3R (Homo sapiens, UniProt P35462); assay: D3R screening binding with [3H]-methylspiperone in CHO cells (Eurofins); settings: percentage displacement at 10^-6 M; CHO cells with stable expression of human D3R; read-out: %inh Binding to D3R @1μM
T2 sequence (P35462 whole entry): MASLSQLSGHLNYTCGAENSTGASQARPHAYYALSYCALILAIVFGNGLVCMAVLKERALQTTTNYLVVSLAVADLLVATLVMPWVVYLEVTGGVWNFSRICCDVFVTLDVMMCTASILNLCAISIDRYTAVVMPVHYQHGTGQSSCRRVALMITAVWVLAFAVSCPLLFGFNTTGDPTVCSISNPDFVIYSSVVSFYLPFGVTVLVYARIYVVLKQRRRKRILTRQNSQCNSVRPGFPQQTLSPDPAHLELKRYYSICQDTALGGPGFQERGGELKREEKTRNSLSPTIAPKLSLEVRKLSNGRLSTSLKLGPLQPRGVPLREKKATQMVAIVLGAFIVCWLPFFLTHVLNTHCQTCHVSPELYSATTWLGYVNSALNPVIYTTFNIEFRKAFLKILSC
Method: as §1

[4] = target: T1, human 5-HT6R; assay: 5-HT6R constitutive activity at Gs signaling in NG108-15 cells (CAMYEL BRET cAMP sensor); type: cell-based; settings: NG108-15 cells transiently expressing 5-HT6R; Figure 3
Method: The experiments were performed in 1321N1 cells expressing the human serotonin 5-HT6R. […] Neuroblastoma cells (NG108-15) were grown in DMEM (Dulbecco’s modified Eagle’s medium) supplemented with 10% heat-inactivated fetal bovine serum, 2% HAT (hypoxanthine/aminopterin/thymidine, Life technologies), glutamine, and antibiotics at 37 °C under 5% of CO2. cAMP measurement was performed in cells transiently transfected with a construct expressing the CAMYEL bioluminescence resonance energy transfer (BRET) sensor for cAMP [44] (3 μg DNA/million cells) alone or in combination with a plasmid encoding the human 5-HT6R (0.5 μg DNA/million cells). Transfection of the NG108-15 cells was conducted in suspension using Lipofectamine 2000, according to the manufacturer’s protocol. Plasmids and lipofectamine were diluted in Opti-MEM Reduced Serum Media (Gibco) and incubated at room temperature for 20 min before being added to the cells. […] Coelanterazine H (Molecular Probes) was added in each well at a final concentration of 5 μM and incubated at room temperature for 5 min before measuring BRET in a Mithras LB 940 plate reader (Berthold Technologies, Bad Wildbad, Germany). The decrease in CAMYEL BRET induced by the coexpression of the probe with the 5-HT6R as compared to the BRET measured in cells expressing the probe alone was used as an index of the 5-HT6R constitutive activity.

[5] = target: T3, human serotonin 5-HT6R (Homo sapiens, UniProt P50406); assay: cAMP cellular assay, inhibition of 5-CT-induced cAMP production in 1321N1 cells; type: cell-based; settings: 1321N1 cells expressing human 5-HT6R; cAMP production induced by 5-CT (1000 nM); read-out: Kb, antagonist properties at 5-HT6R
T3 construct: host or cells: 1321N1 (frozen recombinant cells)
T3 sequence (P50406 whole entry): as the sequence (P50406 whole entry) above
Method: The experiments were performed in 1321N1 cells expressing the human serotonin 5-HT6R.
The functional properties of compounds on 5-HT6R were evaluated using its ability to inhibit cAMP production induced by 5-CT (1000 nM), a 5-HT6R agonist. The compound was tested in triplicate at 8 concentrations (10^−11 to 10^−4 M). The level of adenylyl cyclase activity was measured using frozen recombinant 1321N1 cells expressing the human serotonin 5-HT6R (PerkinElmer). Total cAMP was measured using the LANCE cAMP detection kit (PerkinElmer), according to the manufacturer’s directions. For quantification of cAMP levels, cells (5 μL) were incubated with a mixture of compounds (5 μL) for 30 min at room temperature in 384-well white opaque microtiter plates. After incubation, the reaction was stopped, and cells were lysed by the addition of 10 μL of working solution (5 μL of Eu-cAMP and 5 μL of ULight-anti-cAMP). The assay plate was incubated for 1 h at room temperature. Time-resolved fluorescence resonance energy transfer (TR-FRET) was detected by an Infinite M1000 Pro (Tecan, Männedorf, Switzerland) using instrument settings from LANCE cAMP detection kit manual(PerkinElmer, Waltham, MA, USA).

[6] = target: D3R; parameters: method as in earlier work; settings: Figure 1; ref 25 (SB737050), ref 19 (I), ref 26 (PZ-1643); cited from earlier work
[7] = target: 5-HT6R; settings: Figure 1; ref 25 (SB737050), ref 19 (I), ref 26 (PZ-1643), ref 27 (CPPQ); cited from earlier work
[8] = target: T1, human 5-HT6R; parameters: method as in PMID 30896921; settings: HEK293 cells, data taken from ref 26; cited from earlier work
[9] = target: T2, human D3R; parameters: method as in PMID 30896921; settings: data taken from ref 26, cited from earlier work

Compound: O=S(=O)(c1cccc(Cl)c1)n1ccc2c(N[C@H]3CCNC3)nc3ccccc3c21 [CPPQ, (S)-1-((3-chlorophenyl)sulfonyl)-N-(pyrrolidin-3-yl)-1H-pyrrolo[3,2-c]quinolin-4-amine]
pKi D2R [1]: 6.0

Ki [2]: 0.011 µM
Compound: C[C@H](O)CN1CC[C@H](Nc2nc3ccccc3c3c2ccn3S(=O)(=O)c2cccc(Cl)c2)C1 [Compound 8, (S)-1-((S)-3-((1-((3-chlorophenyl)sulfonyl)-1H-pyrrolo[3,2-c]quinolin-4-yl)amino)pyrrolidin-1-yl)propan-2-ol]

Ki [2]: 0.006 µM
inhibition at 1 µM [3]: 54%
Compound: C[C@@H](O)CN1CC[C@H](Nc2nc3ccccc3c3c2ccn3S(=O)(=O)c2cccc(Cl)c2)C1 [Compound 9, (R)-1-((S)-3-((1-((3-chlorophenyl)sulfonyl)-1H-pyrrolo[3,2-c]quinolin-4-yl)amino)pyrrolidin-1-yl)propan-2-ol]

Ki [2]: 0.084 µM
Compound: O=S(=O)(c1cccc(Cl)c1)n1ccc2c(N[C@H]3CCN(CCO)C3)nc3ccccc3c21 [Compound 10, (S)-2-(3-((1-((3-chlorophenyl)sulfonyl)-1H-pyrrolo[3,2-c]quinolin-4-yl)amino)pyrrolidin-1-yl)ethan-1-ol]

Ki [2]: 0.017 µM
inhibition at 1 µM [3]: 25%
Compound: COCCCN1CC[C@H](Nc2nc3ccccc3c3c2ccn3S(=O)(=O)c2cccc(Cl)c2)C1 [Compound 11, (S)-1-((3-chlorophenyl)sulfonyl)-N-(1-(3-methoxypropyl)pyrrolidin-3-yl)-1H-pyrrolo[3,2-c]quinolin-4-amine]

Ki [2]: 0.556 µM
Compound: O=S(=O)(c1cccc(Cl)c1)n1ccc2c(N[C@H]3CCN(CCC(F)(F)F)C3)nc3ccccc3c21 [Compound 12, (S)-1-((3-chlorophenyl)sulfonyl)-N-(1-(3,3,3-trifluoropropyl)pyrrolidin-3-yl)-1H-pyrrolo[3,2-c]quinolin-4-amine]

Impact on 5-HT6R-operated Gs signaling (constitutive activity) [4]: neutral antagonist
Ki [2]: 0.027 µM
inhibition at 1 µM [3]: 58%
Kb [5]: 0.0012 µM
Compound: CCN1CCC[C@@H]1CNc1nc2ccccc2c2c1ccn2S(=O)(=O)c1cccc(Cl)c1.Cl [Compound 13, (R)-1-((3-chlorophenyl)sulfonyl)-N-((1-ethylpyrrolidin-2-yl)methyl)-1H-pyrrolo[3,2-c]quinolin-4-amine hydrochloride]

Ki [2]: 0.072 µM
Compound: CCN1CCC[C@H]1CNc1nc2ccccc2c2c1ccn2S(=O)(=O)c1cccc(Cl)c1 [Compound 14, (S)-1-((3-chlorophenyl)sulfonyl)-N-((1-ethylpyrrolidin-2-yl)methyl)-1H-pyrrolo[3,2-c]quinolin-4-amine hydrochloride]

Ki [2]: 0.038 µM
Compound: CCN1CC[C@H](CNc2nc3ccccc3c3c2ccn3S(=O)(=O)c2cccc(Cl)c2)C1 [Compound 15, (R)-1-((3-chlorophenyl)sulfonyl)-N-((1-ethylpyrrolidin-3-yl)methyl)-1H-pyrrolo[3,2-c]quinolin-4-amine hydrochloride]

Ki [2]: 0.064 µM
Compound: CCN1CC[C@@H](CNc2nc3ccccc3c3c2ccn3S(=O)(=O)c2cccc(Cl)c2)C1 [Compound 16, (S)-1-((3-chlorophenyl)sulfonyl)-N-((1-ethylpyrrolidin-3-yl)methyl)-1H-pyrrolo[3,2-c]quinolin-4-amine hydrochloride]

Impact on 5-HT6R-operated Gs signaling (constitutive activity) [4]: neutral antagonist
Ki [2]: 0.027 µM
inhibition at 1 µM [3]: 57%
Kb [5]: 0.0038 µM
Compound: CC(C)CN1CCC[C@@H]1CNc1nc2ccccc2c2c1ccn2S(=O)(=O)c1cccc(Cl)c1.Cl [Compound 17, (R)-1-((3-chlorophenyl)sulfonyl)-N-((1-isobutylpyrrolidin-2-yl)methyl)-1H-pyrrolo[3,2-c]quinolin-4-amine hydrochloride]

Ki [2]: 0.065 µM
Compound: CC(C)CN1CCC[C@H]1CNc1nc2ccccc2c2c1ccn2S(=O)(=O)c1cccc(Cl)c1 [Compound 18, (S)-1-((3-chlorophenyl)sulfonyl)-N-((1-isobutylpyrrolidin-2-yl)methyl)-1H-pyrrolo[3,2-c]quinolin-4-amine hydrochloride]

Ki [2]: 0.058 µM
Compound: O=S(=O)(c1cccc(Cl)c1)n1ccc2c(NC[C@H]3CCCN3CCO)nc3ccccc3c21 [Compound 19, (R)-2-(2-(((1-((3-chlorophenyl)sulfonyl)-1H-pyrrolo[3,2-c]quinolin-4 yl)amino)methyl)-pyrrolidin-1-yl)ethan-1-ol hydrochloride]

Ki [2]: 0.077 µM
Compound: O=S(=O)(c1cccc(Cl)c1)n1ccc2c(NC[C@@H]3CCCN3CCO)nc3ccccc3c21 [Compound 20, (S)-2-(2-(((1-((3-chlorophenyl)sulfonyl)-1H-pyrrolo[3,2-c]quinolin-4 yl)amino)methyl)pyrrolidin-1-yl)ethan-1-ol hydrochloride]

Ki [2]: 0.087 µM
Compound: COCCCN1CCC[C@@H]1CNc1nc2ccccc2c2c1ccn2S(=O)(=O)c1cccc(Cl)c1 [Compound 21, (R)-1-((3-chlorophenyl)sulfonyl)-N-((1-(3-methoxypropyl)pyrrolidin-2-yl)methyl)-1H-pyrrolo[3,2-c]quinolin-4-amine]

Compound: CN1Cc2c(ccc3c2ccn3S(=O)(=O)c2c(Cl)nc3sccn23)CC1CCO (centres unmarked) [I]
pKi D2R [1]: 7.4
pKi D3R [6]: 9.0
pKi 5-HT6R [7]: 8.7

Compound: CC(C)CN1CC[C@H](Nc2nc3ccccc3c3c2ccn3S(=O)(=O)c2cccc(Cl)c2)C1 [PZ-1643]
Ki [8]: 0.027 µM
pKi D2R [1]: 6.5
%inh Binding to D3R @1μM ([9]; percentage displacement at 10^-6 M): 98%
Ki ([9]; printed in parentheses after %inh, read-out: D3R affinity value in parentheses (Ki)): 0.007 µM
pKi D3R [6]: 8.2
pKi 5-HT6R [7]: 7.6

Compound: COc1cc2c(cc1NS(=O)(=O)c1ccc(-c3cccs3)cc1)CCN(C)CC2 [SB737050]
pKi D2R [1]: 7.7
pKi D3R [6]: 7.9
pKi 5-HT6R [7]: 9.0
